Measurements published in DBAASP.
In brackets after ≈: the same amount, converted by molar mass.

Key:
Experiment in all cases: ≥ marks a high value that may be exact or a test limit, other limits are often not marked, values filed in µg/mL are converted to µM
Escherichia coli = system: Escherichia coli
Bacillus megaterium Bm11 = system: Bacillus megaterium Bm11
[1] = system: Staphylococcus aureus ATCC 25923
Escherichia coli ML-35 = system: Escherichia coli ML-35
[2] = system: Salmonella enterica subsp. enterica serovar Typhimurium ATCC 14028
Staphylococcus aureus = system: Staphylococcus aureus
Proteus mirabilis = system: Proteus mirabilis
[3] = system: Pseudomonas aeruginosa K799
[4] = system: Salmonella enterica serovar typhimurium MS7953s
Candida albicans C627 = system: Candida albicans C627
[5] = system: Escherichia coli CGSC 4908
[6] = system: Salmonella enterica subsp. enterica serovar Typhimurium ATCC 14028s
[7] = system: Staphylococcus aureus C623
[8] = system: Pseudomonas aeruginosa Z61
Escherichia coli UB1005 = system: Escherichia coli UB1005
[9] = system: Staphylococcus epidermidis C621
[10] = system: Aeromonas salmonicida 97-4
Escherichia coli DC2 = system: Escherichia coli DC2
[11] = system: Aeromonas salmonicida 99-1
[12] = system: Staphylococcus aureus ATCC 33592
[13] = system: Salmonella typhimurium KCTC 1926
[14] = system: Escherichia coli CCARM 1229
[15] = system: Bacillus subtilis KCTC 1998
[16] = system: Staphylococcus aureus CCARM 3090
[17] = system: Staphylococcus aureus CCARM 3518
[18] = system: Trichosporon beigelii KCTC 7707
[19] = system: Pseudomonas aeruginosa 4007
[20] = system: Escherichia coli ATCC 25922
[21] = system: Pseudomonas aeruginosa 4891
[22] = system: Pseudomonas aeruginosa ATCC 27853
[23] = system: Listeria monocytogenes KCTC 3710
[24] = system: Escherichia coli CCARM 1238
[25] = system: Candida albicans KCTC 7270
Candida glabrata = system: Candida glabrata
Candida albicans = system: Candida albicans
Candida krusei = system: Candida krusei
Candida parapsilosis = system: Candida parapsilosis
Candida tropicalis = system: Candida tropicalis
[26] = system: Candida albicans ATCC 10231

MIC [1]	MIC [13]	MIC [14]	MIC [15]	MIC [16]	MIC [17]	MIC [18]	MIC [19]	MIC [20]	MIC [21]	MIC [22]	MIC [23]	MIC [24]	MIC [25]	SMILES	other results
8 µM (≈ 15.9 µg/mL)														CC[C@H](C)[C@H](NC(=O)CN)C(=O)N[C@@H](CC(C)C)C(=O)N[C@@H](CO)C(=O)N[C@@H](CCCCN)C(=O)N[C@@H](CC(C)C)C(=O)NCC(=O)N[C@@H](CCCCN)C(=O)N[C@@H](C)C(=O)N[C@@H](CC(C)C)C(=O)N[C@@H](CCCCN)C(=O)N[C@@H](CCCCN)C(=O)N[C@@H](C)C(=O)N[C@@H](C)C(=O)N[C@@H](CCCCN)C(=O)N[C@@H](Cc1cnc[nH]1)C(=O)N[C@@H](C)C(=O)N[C@@H](C)C(=O)N[C@@H](CCCCN)C(=O)N[C@@H](C)C=O [GILSKLGKALKKAAKHAAKA]	MIC (Escherichia coli): 4 µM (≈ 7.95 µg/mL); MIC (Bacillus megaterium Bm11): 4 µM (≈ 7.95 µg/mL); MIC (Escherichia coli ML-35): 8 µM (≈ 15.9 µg/mL); MIC [2]: 8 µM (≈ 15.9 µg/mL); MIC (Staphylococcus aureus): 2 µM (≈ 3.98 µg/mL); MIC (Proteus mirabilis): ≥ 32 µM
														CC(=O)[C@H](CC(C)C)NC(=O)[C@H](Cc1ccc(O)cc1)NC(=O)[C@H](Cc1cnc[nH]1)NC(=O)[C@H](CC(=O)O)NC(=O)[C@@H](NC(=O)[C@H](C)NC(=O)[C@H](CC(C)C)NC(=O)CNC(=O)CNC(=O)[C@@H](NC(=O)[C@@H](NC(=O)[C@H](CCCCN)NC(=O)CNC(=O)[C@@H](NC(=O)[C@H](CCCCN)NC(=O)[C@H](CCCCN)NC(=O)[C@H](C)NC(=O)[C@H](CCCNC(=N)N)NC(=O)[C@H](CC(N)=O)NC(=O)[C@H](Cc1ccccc1)NC(=O)[C@H](Cc1c[nH]c2ccccc12)NC(=O)[C@H](CCCCN)NC(=O)[C@H](CCCCN)NC(=O)[C@H](Cc1c[nH]c2ccccc12)NC(=O)CN)C(C)C)[C@@H](C)O)C(C)C)C(C)C [GWKKWFNRAKKVGKTVGGLAVDHYL]	MIC [3]: 1.4 µM (≈ 4 µg/mL); MIC [4]: 0.7 µM (≈ 2 µg/mL); MIC (Candida albicans C627): 1.4 µM (≈ 4 µg/mL); MIC [5]: 0.7 µM (≈ 2 µg/mL); MIC [6]: 2.8 µM (≈ 7.99 µg/mL); MIC [7]: 5.6 µM (≈ 16 µg/mL); MIC [8]: 0.35 µM (≈ 0.999 µg/mL); MIC (Escherichia coli UB1005): 2.8 µM (≈ 7.99 µg/mL); MIC [9]: 2.8 µM (≈ 7.99 µg/mL); MIC [10]: 0.7 µM (≈ 2 µg/mL); MIC (Escherichia coli DC2): 0.7 µM (≈ 2 µg/mL); MIC [11]: 0.7 µM (≈ 2 µg/mL)
														CC[C@H](C)[C@H](NC(=O)[C@H](Cc1c[nH]c2ccccc12)NC(C)=O)C(=O)N[C@@H](CCCCN)C(=O)N[C@@H](CCCN=C(N)N)C(=O)N[C@@H](CC(C)C)C(=O)N[C@@H](CC(N)=O)C(=O)N[C@@H](CO)C(=O)N[C@@H](Cc1c[nH]c2ccccc12)C(=O)N[C@@H](CC(C)C)C(=O)N[C@@H](CCCN=C(N)N)C(=O)N[C@@H](CCCCN)C(N)=O [WIKRLNSWLRK]	MIC [12]: ≥ 32 µM
32 µM (≈ 84 µg/mL)	16 µM (≈ 42 µg/mL)	≥ 32 µM	≥ 32 µM	≥ 64 µM	≥ 64 µM	≥ 64 µM	≥ 64 µM	16 µM (≈ 42 µg/mL)	≥ 64 µM	16 µM (≈ 42 µg/mL)	≥ 32 µM	≥ 32 µM	≥ 64 µM	CC[C@H](C)[C@H](NC(=O)CNC(=O)[C@H](CCC(N)=O)NC(=O)[C@H](CO)NC(=O)[C@@H](NC(=O)[C@H](CCCCN)NC(=O)[C@H](CCCCN)NC(=O)[C@H](CC(C)C)NC(=O)[C@H](C)NC(=O)[C@H](CC(N)=O)NC(=O)[C@H](CC(C)C)NC(=O)CN)C(C)C)C(=O)N[C@@H](Cc1cnc[nH]1)C(=O)N[C@@H](CCC(=O)O)C(=O)N[C@@H](C)C(=O)N[C@H](C(=O)N[C@@H](CCCCN)C(=O)N[C@@H](CC(C)C)C(=O)N[C@H](C(=O)N[C@@H](CC(N)=O)C(=O)N[C@@H](CC(N)=O)C(=O)N[C@@H](Cc1cnc[nH]1)C(=O)N[C@H](C(=O)N[C@@H](CCC(N)=O)C(N)=O)C(C)C)[C@@H](C)CC)[C@@H](C)CC [GLNALKKVSQGIHEAIKLINNHVQ]	
														CC[C@H](C)[C@H](NC(=O)[C@@H](NC(=O)CNC(=O)[C@H](CCCN=C(N)N)NC(=O)[C@H](CCC(N)=O)NC(=O)[C@H](Cc1cnc[nH]1)NC(=O)[C@H](CC(C)C)NC(=O)[C@H](CCCN=C(N)N)NC(=O)[C@@H](NC(=O)[C@H](CC(C)C)NC(=O)[C@@H](NC(=O)[C@@H](NC(=O)[C@H](CC(C)C)NC(=O)[C@H](CC(C)C)NC(=O)[C@@H](N)C(C)C)C(C)C)[C@@H](C)O)[C@@H](C)O)C(C)C)C(=O)N[C@@H](Cc1ccc(O)cc1)C(=O)N[C@@H](CCCN=C(N)N)C(=O)N[C@@H](CCCCN)C(=O)N[C@@H](Cc1c[nH]c2ccccc12)C(=O)N[C@@H](CCCN=C(N)N)C(=O)N[C@@H](Cc1cnc[nH]1)C(=O)N[C@@H](Cc1ccccc1)C(=O)N[C@@H](CO)C(=O)NCC(=O)N[C@@H](CCCN=C(N)N)C(=O)N[C@@H](CCCCN)C(=O)N[C@@H](Cc1ccc(O)cc1)C(=O)N[C@@H](CCCN=C(N)N)C(=O)O [VLLVTLTRLHQRGVIYRKWRHFSGRKYR]	MIC (Candida glabrata): ≥ 50 µM; MIC (Candida albicans): 25 µM (≈ 88.5 µg/mL); MIC (Candida krusei): 25 µM (≈ 88.5 µg/mL); MIC (Candida parapsilosis): 25 µM (≈ 88.5 µg/mL); MIC (Candida tropicalis): 12.5 µM (≈ 44.3 µg/mL); MIC [26]: 25 µM (≈ 88.5 µg/mL)
32 µM (≈ 90 µg/mL)	16 µM (≈ 45 µg/mL)	16 µM (≈ 45 µg/mL)	≥ 32 µM	≥ 32 µM	≥ 32 µM	≥ 64 µM	16 µM (≈ 45 µg/mL)	16 µM (≈ 45 µg/mL)	16 µM (≈ 45 µg/mL)	16 µM (≈ 45 µg/mL)	≥ 32 µM	16 µM (≈ 45 µg/mL)	≥ 64 µM	CC[C@H](C)[C@H](NC(=O)CNC(=O)[C@H](CCC(N)=O)NC(=O)[C@H](Cc1ccccc1)NC(=O)[C@@H](NC(=O)[C@H](CCCCN)NC(=O)[C@H](CCCCN)NC(=O)[C@H](CC(C)C)NC(=O)[C@H](C)NC(=O)[C@H](CC(N)=O)NC(=O)[C@H](CC(C)C)NC(=O)[C@@H](N)Cc1c[nH]c2ccccc12)C(C)C)C(=O)N[C@@H](Cc1cnc[nH]1)C(=O)N[C@@H](CCC(=O)O)C(=O)N[C@@H](C)C(=O)N[C@H](C(=O)N[C@@H](CCCCN)C(=O)N[C@@H](CC(C)C)C(=O)N[C@H](C(=O)N[C@@H](CC(N)=O)C(=O)N[C@@H](CC(N)=O)C(=O)N[C@@H](Cc1cnc[nH]1)C(=O)N[C@H](C(=O)N[C@@H](CCC(N)=O)C(N)=O)C(C)C)[C@@H](C)CC)[C@@H](C)CC [WLNALKKVFQGIHEAIKLINNHVQ]	
